Reference: patent US10827755B2, “Insecticidal compositions and methods” (priority 2015, dated 2020)

Experiments:
Assay type in all cases: in vivo
[1] = test system: Western Corn Root Worm (WCR); assay: Insect feeding assay (Example 3), Western corn rootworm; design: key: A “+” score was given to samples which showed any level of stunting and/or mortality higher than that of the untreated controls; A “−” score was given to samples which showed no activity; settings: 0.1 mg/mL diet overlay, 6 days, 27° C., summary of three replicates
Description: (§1) For evaluating control of insect species, the test unit consisted of a 96-well bioassay plate filled with a species-specific artificial diet. Compounds were dissolved in DMSO and added as diet overlay to the indicated concentration, and dried/maintained overnight before infestation. Once dry, the bioassay plates were infested with a single neonate larva (nymph for lygus) per well. The bioassay plates were then held for 6 days in an incubator at 27° C. and 50% relative humidity. Sample response was then visually assessed based on mortality and stunting of the insect. […] Western corn rootworm data represents a summary of three replicates. Data for all other insect species represents a summary of two replicates.

[2] = test system: Yellow Fever Mosquito (YFM); assay: Insect feeding assay (Example 3), yellow fever mosquito; design: key: A “+” score was given to samples which showed any level of stunting and/or mortality higher than that of the untreated controls; A “−” score was given to samples which showed no activity; settings: 0.1 mginiL diet overlay, 6 days, 27° C., summary of two replicates
Description: as §1

Diamondback Moth (DBM) [3] = assay: Insect feeding assay (Example 4), diamondback moth; design: key: “+” represents mortality or stunting significantly different compared to the untreated control; “−” represents no significant difference in mortality or stunting compared to the untreated control; settings: 0.05 mg/mL diet overlay, 6 days, 27° C.
Description: (§2) For evaluating control of insect species in this example, the test unit consisted of a 96-well bioassay plate filled with species-specific artificial diet. Compounds were dissolved in DMSO and added as diet overlay to the indicated concentration and dried/maintained overnight before infestation. Once dry, the bioassay plates were infested with a single neonate larva (nymph for lygus) per well. The bioassay plates were held for 6 days in an incubator at 27° C. and 50% relative humidity. Each well was assessed for infestation and contamination. Wells that were contaminated or not infested were not included in the stunting and mortality assessment. A stunting score was reported based on the relative size of the survivors within the 8-well column with averaging across a 3 column replicate. Untreated control insects were used as a reference.

Fall Armyworm (FAW) = assay: Insect feeding assay (Example 4), fall armyworm; design: key: “+” represents mortality or stunting significantly different compared to the untreated control; “−” represents no significant difference in mortality or stunting compared to the untreated control; settings: 0.05 mg/mL diet overlay, 6 days, 27° C.
Description: as §2

Soybean Looper (SL) = assay: Insect feeding assay (Example 4), soybean looper; design: key: “+” represents mortality or stunting significantly different compared to the untreated control; “−” represents no significant difference in mortality or stunting compared to the untreated control; settings: 0.05 mg/mL diet overlay, 6 days, 27° C.
Description: as §2

[4] = test system: Western Tarnished Plantbug; assay: Insect feeding assay (Example 4), Western tarnished plantbug; design: key: “+” represents mortality or stunting significantly different compared to the untreated control; “−” represents no significant difference in mortality or stunting compared to the untreated control; settings: 0.05 mg/mL diet overlay, nymph, 6 days, 27° C.
Description: as §2

[5] = test system: Yellow Fever Mosquito (YEW); assay: Insect feeding assay (Example 4), yellow fever mosquito; design: key: “+” represents mortality or stunting significantly different compared to the untreated control; “−” represents no significant difference in mortality or stunting compared to the untreated control; settings: 0.05 mg/mL diet overlay, 6 days, 27° C.
Description: as §2

[6] = test system: Western Corn Rootworm (WCR); assay: Insect feeding assay (Example 4), Western corn rootworm; design: key: “+” represents mortality or stunting significantly different compared to the untreated control; “−” represents no significant difference in mortality or stunting compared to the untreated control; settings: 0.05 mg/mL diet overlay, 6 days, 27° C.
Description: as §2

Diamondback Moth (DBM) [7] = assay: Insect feeding assay (Example 3), diamondback moth; design: key: A “+” score was given to samples which showed any level of stunting and/or mortality higher than that of the untreated controls; A “−” score was given to samples which showed no activity; settings: 0.1 mg/mL diet overlay, 6 days, 27° C., summary of two replicates
Description: as §1

Row | Structure (SMILES) | WCR (0.1 mg/mL) mortality and stunting score [1] | YEM (0.1 mginiL) mortality and stunting score [2] | DBM (0.05 mg/mL) mortality or stunting (Diamondback Moth (DBM) [3]) | FAW (0.05 mg/mL) mortality or stunting (Fall Armyworm (FAW)) | SL (0.05 mg/mL) mortality or stunting (Soybean Looper (SL)) | WTP (0.05 mg/mL mortality or stunting) [4] | YFM (0.05 mg/mL) mortality or stunting [5] | WCR (0.05 mg/mL) mortality or stunting [6] | DBM (0.1 mg/mL) mortality and stunting score (Diamondback Moth (DBM) [7])
1 | Cc1cc(C)c(-c2nc(-c3ccccc3)c(-c3ccccc3)[nH]2)c(C)c1 [I-i] | + | + | + | − | − | − | − |  | 
2 | Cc1ccc(C)c(-c2nc(-c3c(Cl)cccc3Cl)[nH]c2-c2ccccc2)c1 [I-ii] | + | + | + | + | + | + | + |  | 
3 | Cc1ccc(C)c(-c2nc(-c3c(F)cccc3Cl)[nH]c2-c2ccccc2)c1 [I-iii] |  | + |  |  |  |  |  |  | 
4 | COc1ccc(-c2nc(-c3ccccc3)c(-c3ccccc3)[nH]2)c(OC)c1 [I-iv] | + | + | + | − | − | − | + |  | 
5 | CSc1ccc(-c2nc(-c3ccc(C)cc3)c(-c3ccc(C)cc3)[nH]2)cc1 [I-ix] |  |  | + | + | + | − | − | + | 
6 | CCOc1ccccc1-c1nc(-c2ccccc2)c(-c2ccccc2)[nH]1 [I-v] | + |  | − | − | − | − | − |  | 
7 | C#CCOc1ccccc1-c1nc(-c2ccccc2)c(-c2ccccc2)[nH]1 [I-vi] |  |  | + | − | − | + | + |  | 
8 | Clc1cccc(-c2[nH]c(-c3ccc(Cl)cc3Cl)nc2-c2ccccc2)c1 [I-vii] |  |  | + | + | + | − | + |  | 
9 | COc1ccc(-c2nc(-c3ccccc3)c(-c3ccccc3)[nH]2)c(OC)c1OC [I-viii] |  |  | + | − | − | − | + | + | 
10 | O=C(c1ccc(F)cc1)c1ccc(-c2nc(-c3cccc(F)c3)[nH]c2-c2ccccc2)cc1 [I-x] |  |  | + | + | + | + | − | + | 
11 | C=CCNC(=O)c1cn(-c2ccc(C)cc2)nc1-c1ccccc1 [II-i] |  | + | + |  |  |  |  |  | +
12 | CC1CCCCC1NC(=O)c1cn(-c2ccccc2)nc1-c1cccs1 (stereo not drawn) [II-ii] |  |  | − | − | − | − | − |  | +
13 | CCOCCNC(=O)c1cn(C)nc1-c1ccccc1Cl [II-iii] |  | + | − | − | − | − | − |  | 
14 | Cn1cc(C(=O)NCCC2CCCO2)c(-c2ccccc2Cl)n1 (stereo not drawn) [II-iv] |  | + | − | − | − | − | − |  | 
15 | Cn1cc(C(=O)NC2CCSCC2)c(-c2ccccc2Cl)n1 [II-v] |  | + |  |  |  |  |  |  | 
